Measured values reported in PMC12154458, “High-Throughput Screens of Repurposing Hub and DOS Chemical Libraries Reveal Compounds with Novel and Potent Inhibitory Activity Against the Essential Non-Neuronal Acetylcholinesterase of Schistosoma mansoni (SmTAChE)” (International Journal of Molecular Sciences, 2025).
“Also recorded” adds a separate entry of the source. Where two headings read alike, the source gives them in different places.

Tests used:
rSmTAChE [1] = biological target: T1, rSmTAChE (Schistosoma mansoni, UniProt A0A3Q0KMM5); experiment: biochemical
T1 sequence (A0A3Q0KMM5 27-661 limits assumed): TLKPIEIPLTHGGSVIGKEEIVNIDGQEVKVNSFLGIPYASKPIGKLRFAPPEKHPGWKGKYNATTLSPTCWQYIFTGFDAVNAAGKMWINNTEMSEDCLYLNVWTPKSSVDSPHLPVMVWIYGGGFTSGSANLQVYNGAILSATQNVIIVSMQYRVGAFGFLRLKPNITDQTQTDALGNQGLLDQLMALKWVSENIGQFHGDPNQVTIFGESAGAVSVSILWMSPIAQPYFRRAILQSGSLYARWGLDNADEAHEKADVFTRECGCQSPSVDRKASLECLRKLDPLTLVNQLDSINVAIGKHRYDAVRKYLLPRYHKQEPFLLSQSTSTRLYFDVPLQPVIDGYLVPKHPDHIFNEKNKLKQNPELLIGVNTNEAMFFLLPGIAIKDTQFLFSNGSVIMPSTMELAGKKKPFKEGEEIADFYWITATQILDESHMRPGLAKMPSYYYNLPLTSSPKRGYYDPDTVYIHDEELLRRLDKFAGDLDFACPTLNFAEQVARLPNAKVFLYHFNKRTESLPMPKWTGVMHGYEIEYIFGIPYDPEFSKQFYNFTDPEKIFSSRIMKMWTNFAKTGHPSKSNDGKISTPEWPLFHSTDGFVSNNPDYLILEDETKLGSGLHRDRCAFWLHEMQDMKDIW

rSmTAChE [2] = biological target: T1, rSmTAChE; format: biochemical
[3] = biological target: recombinant human acetylcholinesterase, rHsAChE (Homo sapiens, UniProt P22303); experiment: biochemical
Sequence of recombinant human acetylcholinesterase, rHsAChE (P22303 32-614): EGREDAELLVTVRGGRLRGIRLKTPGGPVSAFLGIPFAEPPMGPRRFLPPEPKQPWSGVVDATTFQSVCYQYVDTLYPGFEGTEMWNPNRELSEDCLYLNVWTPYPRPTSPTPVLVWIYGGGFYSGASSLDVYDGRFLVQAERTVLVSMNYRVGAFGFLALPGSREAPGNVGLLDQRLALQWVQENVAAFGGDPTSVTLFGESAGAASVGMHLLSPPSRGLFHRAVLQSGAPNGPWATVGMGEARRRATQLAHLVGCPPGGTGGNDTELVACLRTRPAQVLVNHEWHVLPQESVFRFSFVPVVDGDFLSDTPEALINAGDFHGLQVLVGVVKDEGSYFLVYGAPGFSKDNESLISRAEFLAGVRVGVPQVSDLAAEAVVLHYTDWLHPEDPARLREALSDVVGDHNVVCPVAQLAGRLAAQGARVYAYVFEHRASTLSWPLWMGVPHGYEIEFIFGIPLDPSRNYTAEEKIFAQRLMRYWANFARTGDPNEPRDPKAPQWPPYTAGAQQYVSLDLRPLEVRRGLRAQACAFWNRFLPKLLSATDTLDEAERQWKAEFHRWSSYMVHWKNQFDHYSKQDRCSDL

[4] = read-out: rSmTAChE HTS Inhibition (Ave, %)
[5] = read-out: qAC50 (IC50), rSmTAChE
[6] = read-out: qAC50 (IC50), rHsAChE
[7] = read-out: HTS/rSmTAChE Inhibition (Ave, %)
[8] = dose response analysis of Drug Repurposing Hub hits against rHsAChE
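Wherever Inhibition (%) (Average) is given: mostly 20 µM final but a few compounds at 5 or 10 µM.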
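Wherever Inhibition (%) Replicate A is given: mostly 20 µM final but a few compounds at 5 or 10 µM.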
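Wherever Inhibition (%) Replicate B is given: mostly 20 µM final but a few compounds at 5 or 10 µM.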

Compound | Inhibition (%) (Average) (rSmTAChE [1]) | Inhibition (%) Replicate A (rSmTAChE [1]) [%] | Inhibition (%) Replicate B (rSmTAChE [1]) [%] | Data Mode (curve class), rSmTAChE (rSmTAChE [2]) | Data Mode (curve class), rHsAChE [3] | also measured
N.N.[Cl][Pt][Cl] [Cisplatin, reference compound] | 89.23 | 89.47 | 88.99 | decreasing | decreasing (weakly active) | HTS/rSmTAChE Inhibition (Ave, %) (rSmTAChE [1]; 20 µM): 89.23%; SI (Hs/Sm) (rSmTAChE [2]): 9.97; fold greater potency/selectivity for SmTAChE vs. HsAChE (Selectivity Index) (rSmTAChE [2]): about 10 fold; IC50 (rSmTAChE [2]; read-out: IC50 (µM) rSmTAChE): 3.81 µM
O=C(NC(=O)c1c(F)cccc1F)Nc1cc(Cl)c(OC(F)(F)C(F)C(F)(F)F)cc1Cl (stereo not shown) [Lufenuron, reference compound] | – | – | – | decreasing (weakly active) | decreasing | inhibition at 20 µM (rSmTAChE [1]; [4]): 92.6%; IC50 ([3]; IC50 (µM) rHsAChE): 12 µM; IC50 ([3]; qAC50 (IC50), rHsAChE): 12 µM
C[C@]12CC[C@@H]3c4ccc(O)cc4CC[C@H]3[C@@H]1CCC2=O [BRD-K81839095-001-25-1] | 94.45 | 91.12 | 97.78 | inactive | inactive | –
CC(C)=CCC/C(C)=C/CC/C(C)=C/CSc1ccccc1C(=O)O [BRD-K98453471-001-01-7] | 76.52 | 77.70 | 75.33 | decreasing | decreasing | IC50 (rSmTAChE [2]; [5]): 11.6 µM; IC50 [3, 6]: 13.7 µM
SR-33805 [reference compound] | 74.26 | 73.90 | 74.62 | decreasing | – | HTS/rSmTAChE Inhibition (Ave, %) (rSmTAChE [1]; 5 µM): 74.26%; IC50 (rSmTAChE [2]; read-out: IC50 (µM) rSmTAChE): 6.82 µM; IC50 (µM) rHsAChE [3]: Inactive; inhibition of rHsAChE, result in words [3]: no inhibition detected; also recorded: no activity detected
COc1ccc2cc(-c3cc(-c4cc(Cl)cc(Cl)c4)nn3[C@@H](C)c3ccc(C(=O)NCCC(=O)O)cc3)ccc2c1 [MK-0893, reference compound] | – | – | – | decreasing | – | inhibition at 20 µM (rSmTAChE [1]; [7]): 88.7%; IC50 (µM) rHsAChE ([3]; Table 1, Inactive = inactive at the maximum tested concentration (40 µM)): Inactive *; inhibition of rHsAChE, result in words ([3]; dose–response, up to 40 µM): no inhibition detected
CCCCCCCCCCCC1=C(O)C(=O)C=C(O)C1=O [Embelin, reference compound] | – | – | – | decreasing | – | inhibition at 10 µM (rSmTAChE [1]; [7]): 88.7%; SI (Hs/Sm) (rSmTAChE [2]): 1.44; fold greater potency/selectivity for SmTAChE vs. HsAChE (Selectivity Index) (rSmTAChE [2]): 1.4 fold; IC50 ([3]; IC50 (µM) rHsAChE): 1.8 µM; Data Mode (curve class), rHsAChE [3, 8]: decreasing
O=C(C[C@H]1C[C@H]2c3cc(NC(=O)Nc4ccc(C(F)(F)F)cc4)ccc3O[C@H]2[C@H](CO)O1)NC1CCCCC1 [BRD-K50094564-001-01-3] | 69.15 | 68.27 | 70.03 | – | – | rSmTAChE Data Mode (rSmTAChE [2]): decreasing (weakly active); rHsAChE Data Mode [3]: inactive
CCCCCCCCCCCCc1ccc(S(=O)(=O)Nc2nncs2)cc1 [BRD-K59745944-001-04-6] | 78.08 | 80.43 | 75.72 | decreasing | decreasing | IC50 (rSmTAChE [2]; [5]): 1.86 µM; IC50 [3, 6]: 1.16 µM
CN(Cc1ccc(C(C)(C)C)cc1)Cc1cccc2ccccc12 [BRD-K90630139-003-05-9] | 62.99 | 64.97 | 61.01 | inactive | decreasing (weakly active) | IC50 [3, 6]: > 38 µM
C[C@H](CO)N1C[C@H](C)[C@H](CN(C)CC2CC2)OCc2ccccc2-c2c(n(C)c3ccccc23)C1=O [BRD-K90625171-001-01-1] | 64.57 | 64.87 | 64.27 | – | – | rSmTAChE Data Mode (rSmTAChE [2]): decreasing (weakly active); rHsAChE Data Mode [3]: inactive
CN(C)C(=O)Oc1cccc([N+](C)(C)C)c1 [Neostigmine bromide, reference compound] | – | – | – | decreasing | decreasing | inhibition at 20 µM (rSmTAChE [1]; [4]): 88.1%
O=C(Nc1cccc2c(=O)cc(-c3nnn[nH]3)oc12)c1ccc(OCCCCc2ccccc2)cc1 [Pranlukast, reference compound] | – | – | – | decreasing | – | inhibition at 20 µM (rSmTAChE [1]; [4]): 66.3%; SI (Sm/Hs) [3]: 2.18; IC50 ([3]; IC50 (µM) rHsAChE): 12.6 µM; Data Mode (curve class), rHsAChE [3, 8]: decreasing
CC1(COc2ccc3c(c2)ncn3-c2ccc3cccc(N4CCC(N)CC4)c3n2)COC1 [Crenolanib, reference compound] | – | – | – | decreasing (weakly active) | – | inhibition at 20 µM (rSmTAChE [1]; [4]): 64.5%; SI (Sm/Hs) [3]: 1.97; IC50 ([3]; Table 3, read-out: IC50 (µM) rHsAChE): 9.91 µM; Data Mode (curve class), rHsAChE [3, 8]: decreasing
O=C(O)c1ccccc1Nc1ccc(CCc2ccc(Cl)c(Cl)c2)cc1 [BRD-K34657753-001-01-9] | 82.51 | 83.46 | 81.56 | decreasing | decreasing | IC50 (rSmTAChE [2]; [5]): 12.4 µM; IC50 [3, 6]: 8.55 µM
CC(=O)[C@@]12OC(C)(c3ccccc3)O[C@@H]1C[C@H]1[C@@H]3CCC4=CC(=O)CC[C@]4(C)[C@H]3CC[C@@]12C (stereo partly shown) [BRD-A41774846-001-01-4] | 86.37 | 86.06 | 86.68 | decreasing (weakly active) | inactive | IC50 (rSmTAChE [2]; [5]): > 38 µM
C[C@H](Cc1ccc(O)c(O)c1)[C@@H](C)Cc1ccc(O)c(O)c1 [Masoprocol, reference compound] | – | – | – | decreasing | – | inhibition at 20 µM (rSmTAChE [1]; [7]): 76.4%; SI (Hs/Sm) (rSmTAChE [2]): 2.32; Data Mode (curve class), rHsAChE [3, 8]: decreasing (weakly active)
